For orientation: IC50 means the midpoint of a concentration-inhibition curve. One may read the inhibition as the drop in the measured response relative to a control, in per cent.

Experimental findings from patent US20050009840A1 (SUGEN, INC., priority 2003, published 2005) are described below.

In one experiment the target is T1, Met kinase domain (GST fusion protein) (Homo sapiens, UniProt P08581).
T1 construct: Purified GST fusion protein containing the Met kinase domain
T1 sequence (P08581 1078-1345 limits assumed): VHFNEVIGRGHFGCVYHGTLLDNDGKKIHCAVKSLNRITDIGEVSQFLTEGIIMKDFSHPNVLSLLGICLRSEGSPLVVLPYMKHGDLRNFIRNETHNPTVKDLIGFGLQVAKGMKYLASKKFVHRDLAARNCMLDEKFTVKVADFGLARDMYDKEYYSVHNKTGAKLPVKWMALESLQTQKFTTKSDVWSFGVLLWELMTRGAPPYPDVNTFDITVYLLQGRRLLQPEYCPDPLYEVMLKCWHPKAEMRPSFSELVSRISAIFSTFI
Kind of experiment: Met transphosphorylation assay (ELISA, poly(glu-tyr) substrate).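 Also: Cell-free ELISA with plate-bound poly(Glu:Tyr 4:1) phosphorylated by GST-fused Met kinase domain plus ATP and Mn2+, phosphotyrosine detected by anti-phosphotyrosine antibody with HRP and ABTS read-out.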 The settings on record: Table 2; read-out: Met IC50. Format: biochemical. A general note: ELISA stands for enzyme-linked immunosorbent assay.
With `CC(=O)N1CCN(CCS(=O)(=O)Nc2ccc(-c3cnc(N)c(OCc4c(F)ccc(F)c4Cl)c3)cc2)CC1` [Example I-250, 2-(4-Acetyl-piperazin-1-yl)-ethanesulfonic acid {4-[6-amino-5-(2-chloro-3,6-difluoro-benzyloxy)-pyridin-3-yl]-phenyl}-amide], the IC50 was found to be 0.42 µM.

For the molecule `Nc1ncc(-c2cccc(C(=O)NCCCN3CCOCC3)c2)cc1OCc1c(F)ccc(F)c1Cl` [Example I-238, 3-[6-Amino-5-(2-chloro-3,6-difluoro-benzyloxy)-pyridin-3-yl]-N-(3-morpholin-4-yl-propyl)-benzamide], the IC50 came out at 0.35 µM.

Regarding `Nc1ncc(-c2ccc(N3CCCS3(=O)=O)cc2)cc1OCc1c(F)cccc1C(F)(F)F` [Example I-242, 5-[4-(1,1-Dioxo-1λ^6-isothiazolidin-2-yl)-phenyl]-3-(2-fluoro-6-trifluoromethyl-benzyloxy)-pyridin-2-ylamine], the IC50 is 0.14 µM.

In the case of `Nc1ncc(-c2cccc(C(=O)N3CC[C@@H](N)C3)c2)cc1OCc1c(F)ccc(F)c1Cl` [Example I-232, {3-[6-Amino-5-(2-chloro-3,6-difluoro-benzyloxy)-pyridin-3-yl]-phenyl}-[(3R)-3-amino-pyrrolidin-1-yl]-methanone], the IC50 stood at 0.12 µM.

As to `CC(Oc1cc(-c2cccc(C(=O)N3CCC[C@H]3CN3CCCC3)c2)cnc1N)c1c(F)ccc(F)c1Cl` (stereo partly shown) [Example I-352], the IC50 worked out at 0.15 µM.

Take `CC(=O)N1CCN(C(=O)c2ccc(-c3cnc(N)c(OCc4ccc(F)cc4Cl)c3)cc2)CC1` [Example I-208, 1-(4-{4-(6-Amino-5-(2-chloro-4-fluoro-benzyloxy)-pyridin-3-yl]-benzoyl}-piperazin-1-yl)-ethanone]: the IC50 amounted to 5.3 µM.

The experiment is the same for the next values; noted with them: plain numbers in column Met IC50 (μM) of Table 2; read-out: Met IC50.
Regarding `CC(=O)N1CCN(CC(=O)NCC#Cc2cnc(N)c(OC(C)c3c(Cl)ccc(F)c3Cl)c2)CC1` (stereo not shown) [Example I-431, 2-(4-Acetyl-piperazin-1-yl)-N-(3-{6-amino-5-[1-(2,6-dichloro-3-fluoro-phenyl)-ethoxy]pyridin-3-yl}-prop-2-ynyl)-acetamide], the IC50 was found to be 0.027 µM.

For the molecule `CC(Oc1cc(-c2ccc(NC(=O)N3CCN(C)CC3)cc2)cnc1N)c1c(Cl)ccc(F)c1Cl` (stereo not shown) [Example I-371, 4-Methyl-piperazine-1-carboxylic acid (4-{6-amino-5-[1-(2,6-dichloro-3-fluoro-phenyl)-ethoxy]-pyridin-3-yl}-phenyl)-amide], the IC50 was determined as 0.057 µM.

Take `CC(Oc1cc(-c2ccc(C(=O)N3CCN(C)CC3)cn2)cnc1N)c1c(Cl)ccc(F)c1Cl` (stereo not shown) [Example I-527, {6′-Amino-5′-[1-(2,6-dichloro-3-fluoro-phenyl)-ethoxy]-[2,3′]bipyridinyl-5-yl}(4-methyl-piperazin-1-yl)-methanone]: the concentration for half-maximal inhibition (IC50) was determined as 0.0385 µM.

Take `CC(Oc1cc(-c2ccnc(C(=O)N3CCN(C)CC3)c2)cnc1N)c1c(Cl)ccc(F)c1Cl` (stereo not shown) [Example I-515, {6-Amino-5-[1-(2,6-dichloro-3-fluoro-phenyl)-ethoxy]-[3,4′]bipyridinyl-2′-yl}-(4-methyl-piperazin-1-yl)-methanone]: the half-inhibitory concentration (IC50) stood at 0.0387 µM.

The experiment is the same for the next values; noted with them: read-out: Met IC50.
Turning to `CC(Oc1nc(-c2cccc(C(=O)NC[C@H](O)CN3CCOCC3)c2)cnc1N)c1c(Cl)ccc(F)c1Cl` (stereo partly drawn) [II-137, 3-{5-Amino-6-[1-(2,6-dichloro-3-fluoro-phenyl)-ethoxy]-pyrazin-2-yl}-N-((S)-2-hydroxy-3-morpholin-4-yl-propyl)-benzamide], the IC50 amounted to 0.3 µM.

For the molecule `Nc1ncc(-c2cc3ccccc3[nH]2)cc1OCc1c(Cl)cccc1Cl` [Example I-33, 3-(2,6-Dichloro-benzyloxy)-5-(1H-indol-2-yl)-pyridin-2-ylamine], the IC50 stood at 7.5 µM.

Turning to `Nc1ncc(-c2ccccc2)cc1OCc1cc(F)c(Cl)cc1Cl` [Example I-93, 3-(2,4-Dichloro-5-fluoro-benzyloxy)-5-phenyl-pyridin-2-ylamine], the IC50 is above 20 µM.

For the molecule `Nc1ncc(-c2cccc(C(=O)NCCN3CCOCC3)c2)nc1OCc1c(F)ccc(F)c1Cl` [II-58, 3-[5-Amino-6-(2-chloro-3,6-difluoro-benzyloxy)-pyrazin-2-yl]-N-(2-morpholin-4-yl-ethyl)-benzamide], the IC50 turned out to be 2.5 µM.

With `CC(C)(C)OC(=O)N[C@@H]1CCN(Cc2c[nH]c3ccc(-c4cnc(N)c(OCc5c(Cl)cccc5Cl)c4)cc23)C1` [Example I-65], the IC50 is 6.3 µM.

With `CC(Oc1nc(-c2ccc(NC(=O)NCCN3CCOCC3)cc2)cnc1N)c1c(F)ccc(F)c1Cl` (stereo not shown) [II-182, 1-(4-{5-Amino-6-[1-(2-chloro-3,6-difluoro-phenyl)-ethoxy]-pyrazin-2-yl}-phenyl)-3-(2-morpholin-4-yl-ethyl)-urea], the IC50 is 0.18 µM.

For the molecule `CC(Oc1nc(-c2ccc(C(=O)NCCN3CCOCC3)cc2)cnc1N)c1c(F)ccc(F)c1Cl` (stereo not shown) [II-118, 4-{5-Amino-6-[1-(2-chloro-3,6-difluoro-phenyl)-ethoxy]-pyrazin-2-yl}-N-(2-morpholin-4-yl-ethyl)-benzamide], the IC50 worked out at 0.26 µM.

Turning to `CC(Oc1nc(-c2ccc(C(=O)N3CCC(N4CCCC4)CC3)cc2)cnc1N)c1c(F)ccc(F)c1Cl` (stereo not shown) [II-111, (4-{5-Amino-6-[1-(2-chloro-3,6-difluoro-phenyl)-ethoxy]-pyrazin-2-yl}-phenyl)-(4-pyrrolidin-1-yl-piperidin-1-yl)-methanone], the IC50 is 0.17 µM.

For `Nc1ncc(-c2ccc3[nH]cc(CN4CCOCC4)c3c2)cc1OCc1c(F)ccc(F)c1Cl` [Example I-74, 3-(2-Chloro-3,6-difluoro-benzyloxy)-5-(3-morpholin-4-ylmethyl-1H-indol-5-yl)-pyridin-2-ylamine], the IC50 stood at 1.4 µM.

In the case of `Nc1ncc(-c2ccc(OCCN3CCOCC3)cc2)cc1OCc1c(F)ccc(F)c1Cl` [Example I-108, 3-(2-Chloro-3,6-difluoro-benzyloxy)-5-[4-(2-morpholin-4-yl-ethoxy)-phenyl]-pyridin-2-ylamine], the IC50 worked out at 0.21 µM.

As for `CC(Oc1nc(-c2cccc(C(=O)NCCCN3CCCC3)c2)cnc1N)c1c(F)ccc(F)c1Cl` (stereo not shown) [II-97, 3-{5-Amino-6-[1-(2-chloro-3,6-difluoro-phenyl)-ethoxy]-pyrazin-2-yl}-N-(3-pyrrolidin-1-yl-propyl)-benzamide], the IC50 is 0.35 µM.

With `CC(Oc1nc(-c2ccc(C(=O)N3CCC[C@H]3CN3CCCC3)cc2)cnc1N)c1c(F)ccc(F)c1Cl` (stereo partly drawn) [II-113, (4-{5-Amino-6-[1-(2-chloro-3,6-difluoro-phenyl)-ethoxy]-pyrazin-2-yl}-phenyl)-((S)-2-pyrrolidin-1-ylmethyl-pyrrolidin-1-yl)-methanone], the IC50 was determined as 0.18 µM.

In the case of `CC(Oc1nc(-c2ccc(C(=O)N3C[C@@H](C)N[C@@H](C)C3)cc2)cnc1N)c1c(Cl)ccc(F)c1Cl` (stereo partly drawn) [II-155, (4-{5-Amino-6-[1-(2,6-dichloro-3-fluoro-phenyl)-ethoxy]-pyrazin-2-yl}-phenyl)-((3R,5S)-3,5-dimethyl-piperazin-1-yl)-methanone], the IC50 amounted to 0.095 µM.

For `CC(Oc1nc(-c2ccc(C(=O)NC[C@@H](O)CN3CCCC3)cc2)cnc1N)c1c(Cl)ccc(F)c1Cl` (stereo partly drawn) [II-146, 4-{5-Amino-6-[1-(2,6-dichloro-3-fluoro-phenyl)-ethoxy]-pyrazin-2-yl}-N-((R)-2-hydroxy-3-pyrrolidin-1-yl-propyl)-benzamide], the IC50 is 0.15 µM.

Consider `Nc1ncc(-c2cccc(C(=O)NCCCN3CCCC3)c2)nc1OCc1cccc(F)c1C(F)(F)F` [II-125, 3-[5-Amino-6-(3-fluoro-2-trifluoromethyl-benzyloxy)-pyrazin-2-yl]-N-(3-pyrrolidin-1-yl-propyl)-benzamide], for which the IC50 amounted to 0.22 µM.

Regarding `CC(Oc1nc(-c2ccc(C(=O)N3CCC[C@@H]3CN3CCCC3)cc2)cnc1N)c1c(Cl)cccc1Cl` (stereo partly drawn) [II-161, (4-{5-Amino-6-[1-(2,6-dichloro-phenyl)-ethoxy]-pyrazin-2-yl}-phenyl)-((R)-2-pyrrolidin-1-ylmethyl-pyrrolidin-1-yl)-methanone], the IC50 is 0.16 µM.

As to `Nc1ncc(-c2ccccc2)cc1OCc1c(F)cccc1F` [Example I-100, 3-(2,6-Difluoro-benzyloxy)-5-phenyl-pyridin-2-ylamine], the IC50 is 9.3 µM.

Consider `CN1CCN(C(=O)c2ccc(-c3cnc(N)c(OCc4ccccc4Cl)c3)cc2)CC1` [Example I-156, {4-[6-Amino-5-(2-chloro-benzyloxy)-pyridin-3-yl]-phenyl}-(4-methyl-piperazin-1-yl)-methanone], for which the IC50 came out at 2.1 µM.

For the molecule `Nc1ncc(-c2ccc(C(=O)N3CCC[C@@H]3CN3CCCC3)cc2)cc1OCc1c(F)cccc1C(F)(F)F` [Example I-112, {4-[6-Amino-5-(2-fluoro-2-trifluoromethyl-benzyloxy)-pyridin-3-yl]-phenyl}-[(2R)-2-pyrrolidin-1-ylmethyl-pyrrolidin-1-yl]-methanone], the IC50 was 0.15 µM.

In the case of `CC(Oc1nc(-c2ccncc2)cnc1N)c1c(Cl)ccc(F)c1Cl` (stereo not shown) [II-200, 3-[1-(2,6-Dichloro-3-fluoro-phenyl)-ethoxy]-5-pyridin-4-yl-pyrazin-2-ylamine], the 50% inhibitory concentration (IC50) came to 0.045 µM.

Turning to `CC(Oc1nc(-c2ccc(C(=O)NC[C@H](O)CN3CCCC3)cc2)cnc1N)c1c(Cl)ccc(F)c1Cl` (stereo partly shown) [II-148], the IC50 stood at 0.12 µM.

In the case of `Nc1ncc(-c2ccc(C(=O)N3CCC[C@@H]3CN3CCCC3)cc2)cc1OCc1ccccc1Br` [Example I-115, {4-[6-Amino-5-(2-bromo-benzyloxy)-pyridin-3-yl]-phenyl}-[(2R)-2-pyrrolidin-1-ylmethyl-pyrrolidin-1-yl]-methanone], the IC50 is 1.75 µM.

Turning to `CS(=O)(=O)Nc1ccc(-c2cnc(N)c(OCc3ccccc3C#N)c2)cc1` [Example I-135, N-{4-[6-Amino-5-(2-cyano-benzyloxy)-pyridin-3-yl]-phenyl}-methanesulfonamide], the IC50 turned out to be 4.18 µM.

Still in this experiment, the particulars now being: read-out: Met inhibition (printed in the Met IC50 column).
Regarding `Nc1ncc(-c2ccccc2)cc1OCc1cc(Cl)ccc1Cl` [Example I-91, 3-(2,5-Dichloro-benzyloxy)-5-phenyl-pyridin-2-ylamine], the inhibition at 20 µM was 48%.
